We go through 1 compound from US9226907B2 (priority 2008, dated 2016).

What is called Vd is a proportionality between amount in the body and measured concentration, not a real space. Lower therefore signals little distribution into tissue.

The conditions of series [1]: higher drug concentrations associated with overdosage (280 μg/mL); cited from earlier work.
For series [2] the following is noted: in vivo.
The nature of series [3]: clinical. The following applies: in vivo. From the text: Hydrocodone is structurally similar to other opioid analgesics (hydromorphone and oxycodone).

On to `CC(=O)Nc1ccc(O)cc1` [acetaminophen, 4′-hydroxyacetanilide], for which the “Bound to plasma proteins” value in series [1] is given as 15-21%. Also, the “Variability in exposures (Cmax and AUC)” value in series [2] (human) is reported as “not affected by ethanol coadministration”. In addition, the “AUC with different ethanol concentrations versus 0% ethanol” value in series [2] is recorded as “equivalent to that of Vicodin CR alone”. Also, in series [3] (human), the “Effect of food on Cmax or AUC” value is on record as “no effect on Cmax or AUC”, the “Time by which steady state was achieved” value is no more than 24 h and the Vd is 78 to 245 L. Also, the “Cmax and AUC versus dose” value in series [3] is given as “proportional to dose”.
